These are literature values, as cited in patent publication US20100092556A1, “ALFUZOSIN FORMULATIONS, METHODS OF MAKING, AND METHODS OF USE” (priority 2006, published 2010).

The conditions of data set [1]: oral administration.

Structures can show the parent of a compound that is named as a salt.

For `COc1cc2nc(N(C)CCCNC(=O)C3CCCO3)nc(N)c2cc1OC` (racemic) [Alfuzosin hydrochloride, (R,S)—N-[3-[(4-amino-6,7-dimethoxy-2-quinazolinyl)methylamino]propyl]tetrahydro-2-furancarboxamide hydrochloride], the solubility in alcohol result is “sparingly soluble”, the solubility in dichloromethane entry was “practically insoluble” and the solubility in water entry is listed as “freely soluble”.
`COc1cc2nc(N(C)CCCNC(=O)C3CCCO3)nc(N)c2cc1OC` (racemic) [alfuzosin, (R,S)—N-[3-[(4-amino-6,7-dimethoxy-2-quinazolinyl)methylamino]propyl]tetrahydro-2-furancarboxamide]: in data set [1], the “administered dose excreted unchanged in the urine” value is on record as 11%.
